Source: PubChem BioAssay AID1963982 (Molecular Pharmacology Branch, DTP, NCI, 2024)

System: 313798-341-R-J2-PDC spheroids, viability
Test: Anticancer human tumor 313798-341-R-J2-PDC patient-derived cervical squamous cell carcinoma cell line growth inhibition [PI3K]
Conditions: spheroids with HUVEC and MSC; for IC50: curve of first compound; for viability, T/C: stronger effect = lower value
In short: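 Tumor cells were combined with HUVEC and MSCs into spheroids, then dosed with PI3K-inhibitor combinations over half-log ranges capped near clinical Cmax or 10 microM.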

[1] = second compound 0.0316 µM, first compound 0.0316 µM
[2] = second compound 0.0316 µM, first compound 0.1 µM
[3] = second compound 0.0316 µM, first compound 0.316 µM
[4] = second compound 0.0316 µM, first compound 1 µM
[5] = second compound 0.0316 µM, first compound 3.16 µM
[6] = second compound 0.0316 µM, first compound 10 µM
[7] = second compound 0.1 µM, first compound 0.0316 µM
[8] = second compound 0.1 µM, first compound 0.1 µM
[9] = second compound 0.1 µM, first compound 0.316 µM
[10] = second compound 0.1 µM, first compound 1 µM
[11] = second compound 0.1 µM, first compound 3.16 µM
[12] = second compound 0.1 µM, first compound 10 µM
[13] = second compound 0.316 µM, first compound 0.0316 µM
[14] = second compound 0.316 µM, first compound 0.1 µM
[15] = second compound 0.316 µM, first compound 0.316 µM
[16] = second compound 0.316 µM, first compound 1 µM
[17] = second compound 0.316 µM, first compound 3.16 µM
[18] = second compound 0.316 µM, first compound 10 µM
[19] = second compound 1 µM, first compound 0.0316 µM
[20] = second compound 1 µM, first compound 0.1 µM
[21] = second compound 1 µM, first compound 0.316 µM
[22] = second compound 1 µM, first compound 1 µM
[23] = second compound 1 µM, first compound 3.16 µM
[24] = second compound 1 µM, first compound 10 µM
[25] = second compound 3.16 µM, first compound 0.0316 µM
[26] = second compound 3.16 µM, first compound 0.1 µM
[27] = second compound 3.16 µM, first compound 0.316 µM
[28] = second compound 3.16 µM, first compound 1 µM
[29] = second compound 3.16 µM, first compound 3.16 µM
[30] = second compound 3.16 µM, first compound 10 µM
[31] = second compound 10 µM, first compound 0.0316 µM
[32] = second compound 10 µM, first compound 0.1 µM
[33] = second compound 10 µM, first compound 0.316 µM
[34] = second compound 10 µM, first compound 1 µM
[35] = second compound 10 µM, first compound 3.16 µM
[36] = second compound 10 µM, first compound 10 µM
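Note: spheroids exposed to compounds for seven days.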
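Throughout, for viability, T/C: 100% = DMSO vehicle control viability.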

CC(C)NCC(C(=O)N1CCN(c2ncnc3c2C(C)CC3O)CC1)c1ccc(Cl)cc1 (stereo unspecified) + CC(Nc1ncnc2nc[nH]c12)c1cc2cccc(Cl)c2c(=O)n1-c1ccccc1
IC50 (second compound 0.0316 µM): 1.61 µM | IC50 (second compound 0.1 µM): 1.87 µM | IC50 (second compound 0.316 µM): 1.72 µM | IC50 (second compound 1 µM): 1.8 µM | IC50 (second compound 3.16 µM): 1.88 µM | IC50 (second compound 10 µM): 1.41 µM | viability, T/C [1]: 114% | viability, T/C [2]: 91.3% | viability, T/C [3]: 81.7% | viability, T/C [4]: 54% | viability, T/C [5]: 40.1% | viability, T/C [6]: 29.6% | viability, T/C [7]: 102% | viability, T/C [8]: 103% | viability, T/C [9]: 90.2% | viability, T/C [10]: 65.2% | viability, T/C [11]: 36.9% | viability, T/C [12]: 30.5% | viability, T/C [13]: 94% | viability, T/C [14]: 100% | viability, T/C [15]: 84.2% | viability, T/C [16]: 62% | viability, T/C [17]: 36.9% | viability, T/C [18]: 30% | viability, T/C [19]: 97.3% | viability, T/C [20]: 100% | viability, T/C [21]: 89.9% | viability, T/C [22]: 57.5% | viability, T/C [23]: 44.2% | viability, T/C [24]: 26.9% | viability, T/C [25]: 96.7% | viability, T/C [26]: 87.4% | viability, T/C [27]: 89.8% | viability, T/C [28]: 63.2% | viability, T/C [29]: 39.1% | viability, T/C [30]: 26.7% | viability, T/C [31]: 91.3% | viability, T/C [32]: 86.3% | viability, T/C [33]: 75.9% | viability, T/C [34]: 53.7% | viability, T/C [35]: 39% | viability, T/C [36]: 27.1%

CCN1CCN(Cc2ccc(Nc3ncc(F)c(-c4cc(F)c5nc(C)n(C(C)C)c5c4)n3)nc2)CC1 + CC(Nc1ncnc2nc[nH]c12)c1cc2cccc(Cl)c2c(=O)n1-c1ccccc1
IC50 (second compound 0.0316 µM): > 1 µM | IC50 (second compound 0.1 µM): > 1 µM | IC50 (second compound 0.316 µM): > 1 µM | IC50 (second compound 1 µM): > 1 µM | IC50 (second compound 3.16 µM): > 1 µM | IC50 (second compound 10 µM): > 1 µM | viability, T/C (second compound 0.0316 µM, first compound 0.00316 µM): 98.9% | viability, T/C (second compound 0.0316 µM, first compound 0.01 µM): 98.3% | viability, T/C [1]: 114% | viability, T/C [2]: 114% | viability, T/C [3]: 96% | viability, T/C [4]: 123% | viability, T/C (second compound 0.1 µM, first compound 0.00316 µM): 105% | viability, T/C (second compound 0.1 µM, first compound 0.01 µM): 110% | viability, T/C [7]: 103% | viability, T/C [8]: 113% | viability, T/C [9]: 102% | viability, T/C [10]: 115% | viability, T/C (second compound 0.316 µM, first compound 0.00316 µM): 94.5% | viability, T/C (second compound 0.316 µM, first compound 0.01 µM): 100% | viability, T/C [13]: 92.3% | viability, T/C [14]: 96.9% | viability, T/C [15]: 104% | viability, T/C [16]: 107% | viability, T/C (second compound 1 µM, first compound 0.00316 µM): 104% | viability, T/C (second compound 1 µM, first compound 0.01 µM): 95.3% | viability, T/C [19]: 99.8% | viability, T/C [20]: 101% | viability, T/C [21]: 104% | viability, T/C [22]: 109% | viability, T/C (second compound 3.16 µM, first compound 0.00316 µM): 103% | viability, T/C (second compound 3.16 µM, first compound 0.01 µM): 94.6% | viability, T/C [25]: 98.1% | viability, T/C [26]: 99.8% | viability, T/C [27]: 108% | viability, T/C [28]: 89.8% | viability, T/C (second compound 10 µM, first compound 0.00316 µM): 100% | viability, T/C (second compound 10 µM, first compound 0.01 µM): 91.5% | viability, T/C [31]: 83.9% | viability, T/C [32]: 85.8% | viability, T/C [33]: 82.4% | viability, T/C [34]: 89.5%

Cn1ncc(Cl)c1-c1cc(C(=O)NC(CN)Cc2cccc(F)c2)sc1Cl (stereo unspecified) + CC(Nc1ncnc2nc[nH]c12)c1cc2cccc(Cl)c2c(=O)n1-c1ccccc1
IC50 (second compound 0.0316 µM): 0.777 µM | IC50 (second compound 0.1 µM): 0.984 µM | IC50 (second compound 0.316 µM): 1.1 µM | IC50 (second compound 1 µM): 1.08 µM | IC50 (second compound 3.16 µM): 0.79 µM | IC50 (second compound 10 µM): 0.785 µM | viability, T/C [1]: 86.5% | viability, T/C [2]: 82.8% | viability, T/C [3]: 73.1% | viability, T/C [4]: 43.1% | viability, T/C [5]: 34.9% | viability, T/C [6]: 30.9% | viability, T/C [7]: 108% | viability, T/C [8]: 89.5% | viability, T/C [9]: 84.4% | viability, T/C [10]: 48.6% | viability, T/C [11]: 32.2% | viability, T/C [12]: 34.8% | viability, T/C [13]: 97.5% | viability, T/C [14]: 92.8% | viability, T/C [15]: 70.8% | viability, T/C [16]: 54.9% | viability, T/C [17]: 32.2% | viability, T/C [18]: 30.9% | viability, T/C [19]: 101% | viability, T/C [20]: 88.2% | viability, T/C [21]: 77.9% | viability, T/C [22]: 47.5% | viability, T/C [23]: 38.8% | viability, T/C [24]: 29% | viability, T/C [25]: 107% | viability, T/C [26]: 86.1% | viability, T/C [27]: 62.4% | viability, T/C [28]: 49.3% | viability, T/C [29]: 32.5% | viability, T/C [30]: 30.8% | viability, T/C [31]: 87% | viability, T/C [32]: 78.1% | viability, T/C [33]: 67.8% | viability, T/C [34]: 46.5% | viability, T/C [35]: 27.7% | viability, T/C [36]: 25.8%
